Test results from patent publication US9944602B2, “Piperidinone herbicides” (E. I. DU PONT DE NEMOURS AND COMPANY, priority 2014, dated 2018).

Key:
Type in all cases: in vivo
corn (Zea mays) [1] = assay: Test A postemergence corn; settings: 0 to 100 scale, 0 is no effect, 100 is complete control
How it was run: (§1)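 Both application timings used the same loam-and-sand medium and the same solvent–surfactant formulation. Postemergence plants were 2–10 cm at the one- to two-leaf stage. After roughly 10 d of greenhouse growth, injury was judged visually against untreated plants, where 0 is no effect and 100 complete control.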

[2] = system: pigweed (Amaranthus retroflexus); assay: Test A preemergence pigweed; settings: 0 to 100 scale, 0 no effect, 100 complete control
How it was run: as §1

[3] = system: sedge, umbrella (small-flower umbrella sedge, Cyperus difformis); assay: Test B flooded paddy test sedge, umbrella; settings: Table B, Flood, scale 0 to 100
How it was run: (§2)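 Plants at 2-leaf stage in pots flooded 3 cm above soil; compounds applied directly into paddy water, depth kept throughout.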

[4] = system: ducksalad (Heteranthera limosa); assay: Test B flooded paddy test ducksalad; settings: Table B, Flood, scale 0 to 100
How it was run: as §2

[5] = system: wheat (Triticum aestivum); assay: Test A preemergence wheat; settings: 0 to 100 scale, 0 no effect, 100 complete control
From the text: (§3) Seeds of plant species selected from barnyardgrass (Echinochloa crus-galli), kochia (Kochia scoparia), ragweed (common ragweed, Ambrosia elatior), ryegrass, Italian (Italian ryegrass, Lolium multiflorum), crabgrass, large (large crabgrass, Digitaria sanguinalis), foxtail, giant (giant foxtail, Setaria faberii), morningglory (Ipomoea spp.), pigweed (Amaranthus retroflexus), velvetleaf (Abutilon theophrasti), wheat (Triticum aestivum), and corn (Zea mays) were planted into a blend of loam soil and sand and treated preemergence with a directed soil spray using test chemicals formulated in a non-phytotoxic solvent mixture which included a surfactant.
(§4) At the same time, plants selected from these crop and weed species and also blackgrass (Alopecurus myosuroides), and galium (catchweed bedstraw, Galium aparine) were planted in pots containing the same blend of loam soil and sand and treated with postemergence applications of test chemicals formulated in the same manner. Plants ranged in height from 2 to 10 cm and were in the one- to two-leaf stage for the postemergence treatment. Treated plants and untreated controls were maintained in a greenhouse for approximately 10 d, after which time all treated plants were compared to untreated controls and visually evaluated for injury. Plant response ratings, summarized in Table A, are based on a 0 to 100 scale where 0 is no effect and 100 is complete control. A dash (-) response means no test result.

[6] = system: velvetleaf (Abutilon theophrasti); assay: Test A preemergence velvetleaf; settings: 0 to 100 scale, 0 no effect, 100 complete control
From the text: as §3, §4

[7] = system: barnyardgrass (Echinochloa crus-galli); assay: Test B flooded paddy test barnyardgrass; settings: Table B, Flood, scale 0 to 100
How it was run: as §2

[8] = system: pigweed (Amaranthus retroflexus); assay: Test A postemergence pigweed; settings: 0 to 100 scale, 0 is no effect, 100 is complete control
How it was run: as §1

[9] = system: wheat (Triticum aestivum); assay: Test A postemergence wheat; settings: 0 to 100 scale, 0 is no effect, 100 is complete control
How it was run: as §1

[10] = system: crabgrass, large (large crabgrass, Digitaria sanguinalis); assay: Test A preemergence crabgrass, large; settings: 0 to 100 scale
From the text: as §3, §4

corn (Zea mays) [11] = assay: Test A preemergence corn; settings: 0 to 100 scale
From the text: as §3, §4

[12] = system: morningglory (Ipomoea spp.); assay: Test A postemergence morningglory; settings: 0 to 100 scale, 0 is no effect, 100 is complete control
From the text: as §3, §4

[13] = system: crabgrass, large (large crabgrass, Digitaria sanguinalis); assay: Test A postemergence crabgrass, large; settings: 0 to 100 scale, 0 is no effect, 100 is complete control
From the text: as §3, §4

[14] = system: morningglory (Ipomoea spp.); assay: Test A preemergence morningglory; settings: 0 to 100 scale, 0 no effect, 100 complete control
From the text: as §3, §4

[15] = system: foxtail, giant (giant foxtail, Setaria faberii); assay: Test A postemergence foxtail, giant; settings: 0 to 100 scale, 0 is no effect, 100 is complete control
How it was run: as §1

[16] = system: foxtail, giant (giant foxtail, Setaria faberii); assay: Test A preemergence foxtail, giant; settings: 0 to 100 scale, 0 no effect, 100 complete control
How it was run: as §1

[17] = system: barnyardgrass (Echinochloa crus-galli); assay: Test A postemergence barnyardgrass; settings: 0 to 100 scale, 0 is no effect, 100 is complete control
How it was run: as §1

rice (Oryza sativa) [18] = assay: Test B flooded paddy test rice; settings: Table B, Flood, scale 0 to 100
How it was run: as §2

[19] = system: velvetleaf (Abutilon theophrasti); assay: Test A postemergence velvetleaf; settings: 0 to 100 scale, 0 is no effect, 100 is complete control
From the text: as §3, §4

[20] = system: barnyardgrass (Echinochloa crus-galli); assay: Test A preemergence barnyardgrass; settings: 0 to 100 scale; for Barnyardgrass plant response rating: 0 no effect, 100 complete control
How it was run: as §1

kochia (Kochia scoparia) [21] = assay: Test A preemergence kochia; settings: 0 to 100 scale, 0 no effect, 100 complete control
How it was run: as §1

[22] = system: ragweed (common ragweed, Ambrosia elatior); assay: Test A preemergence ragweed; settings: 0 to 100 scale, 0 no effect, 100 complete control
How it was run: as §1

[23] = system: blackgrass (Alopecurus myosuroides); assay: Test A postemergence blackgrass; settings: 0 to 100 scale, 0 is no effect, 100 is complete control
How it was run: as §1

[24] = system: ducksalad (Heteranthera limosa); assay: Test C flooded paddy test ducksalad; settings: Table C, Flood, scale 0 to 100
From the text: (§5) Plant species in the flooded paddy test consisted of rice (Oryza sativa), sedge, umbrella (small-flower umbrella sedge, Cyperus difformis), ducksalad (Heteranthera limosa), and barnyardgrass (Echinochloa crus-galli) grown to the 2-leaf stage for testing. At time of treatment, test pots were flooded to 3 cm above the soil surface, treated by application of test compounds directly to the paddy water, and then maintained at that water depth for the duration of the test. Treated plants and controls were maintained in a greenhouse for 13 to 15 d, after which time all species were compared to controls and visually evaluated. Plant response ratings, summarized in Table C, are based on a scale of 0 to 100 where 0 is no effect and 100 is complete control. A dash (-) response means no test result.

kochia (Kochia scoparia) [25] = assay: Test A postemergence kochia; settings: 0 to 100 scale, 0 is no effect, 100 is complete control
How it was run: as §1

[26] = system: galium (catchweed bedstraw, Galium aparine); assay: Test A postemergence galium; settings: 0 to 100 scale, 0 is no effect, 100 is complete control
How it was run: as §1

[27] = system: ryegrass, Italian (Italian ryegrass, Lolium multiflorum); assay: Test A preemergence ryegrass, Italian; settings: 0 to 100 scale, 0 no effect, 100 complete control
How it was run: as §1

[28] = system: barnyardgrass (Echinochloa crus-galli); assay: Test C flooded paddy test barnyardgrass; settings: Table C, Flood, scale 0 to 100
From the text: as §5

[29] = system: ryegrass, Italian (Italian ryegrass, Lolium multiflorum); assay: Test A postemergence ryegrass, Italian; settings: 0 to 100 scale, 0 is no effect, 100 is complete control
How it was run: as §1

[30] = system: ragweed (common ragweed, Ambrosia elatior); assay: Test A postemergence ragweed; settings: 0 to 100 scale, 0 is no effect, 100 is complete control
How it was run: as §1

[31] = system: sedge, umbrella (small-flower umbrella sedge, Cyperus difformis); assay: Test C flooded paddy test sedge, umbrella; settings: Table C, Flood, scale 0 to 100
From the text: as §5

rice (Oryza sativa) [32] = assay: Test C flooded paddy test rice; settings: Table C, Flood, scale 0 to 100
From the text: as §5

[33] = 125 g ai/ha, 0 no effect, 100 complete control
[34] = 500 g ai/ha, 0 is no effect, 100 is complete control

## O=C1NCCC(c2ccc(F)c(F)c2)C1C(=O)Nc1ccccc1C(F)(F)F (racemic) [Compound 6]
Corn (Zea mays) [1]; 125 g ai/ha
  Plant response rating, Corn: 0
Corn (Zea mays) [1]; 500 g ai/ha
  Plant response rating, Corn: 0
[2]; 125 g ai/ha
  Pigweed plant response rating: 0
[2]; 500 g ai/ha
  Pigweed plant response rating: 0
[3]; 250 g ai/ha
  Plant response rating: 0
[4]; 250 g ai/ha
  Plant response rating: 60
[5]; 125 g ai/ha
  Wheat plant response rating: 0
[5]; 500 g ai/ha
  Wheat plant response rating: 0
[6]; 125 g ai/ha
  Velvetleaf plant response rating: 0
[6]; 500 g ai/ha
  Velvetleaf plant response rating: 0
[7]; 250 g ai/ha
  Plant response rating: 0
[8]; 125 g ai/ha
  Plant response rating, Pigweed: 0
[8]; 500 g ai/ha
  Plant response rating, Pigweed: 30
[9]; 125 g ai/ha
  Plant response rating, Wheat: 0
[9]; 500 g ai/ha
  Plant response rating, Wheat: 0
[10]; [33]
  Crabgrass, Large plant response rating: 90
[10]; [34]
  Plant response rating, Crabgrass, Large: 90
Corn (Zea mays) [11]; [33]
  Corn plant response rating: 0
Corn (Zea mays) [11]; [34]
  Plant response rating, Corn: 0
[12]; 125 g ai/ha
  Plant response rating, Morningglory: 0
[12]; 500 g ai/ha
  Plant response rating, Morningglory: 0
[13]; 125 g ai/ha
  Plant response rating, Crabgrass, Large: 50
[13]; 500 g ai/ha
  Plant response rating, Crabgrass, Large: 80
[14]; 125 g ai/ha
  Morningglory plant response rating: 0
[14]; 500 g ai/ha
  Morningglory plant response rating: 0
[15]; 125 g ai/ha
  Plant response rating, Foxtail, Giant: 30
[15]; 500 g ai/ha
  Plant response rating, Foxtail, Giant: 70
[16]; 125 g ai/ha
  Foxtail, Giant plant response rating: 60
[16]; 500 g ai/ha
  Foxtail, Giant plant response rating: 90
[17]; 125 g ai/ha
  Plant response rating, Barnyardgrass: 0
[17]; 500 g ai/ha
  Plant response rating, Barnyardgrass: 50
Rice (Oryza sativa) [18]; 250 g ai/ha
  Plant response rating: 0
[19]; 125 g ai/ha
  Plant response rating, Velvetleaf: 0
[19]; 500 g ai/ha
  Plant response rating, Velvetleaf: 0
[20]; 125 g ai/ha
  Barnyardgrass plant response rating: 60
[20]; [34]
  Plant response rating, Barnyardgrass: 80

## O=C1NCCC(c2cccc(C(F)(F)F)c2)C1C(=O)Nc1cccc(F)c1Cl (racemic) [Compound 19]
Corn (Zea mays) [1]; 125 g ai/ha
  Plant response rating, Corn: 0
Corn (Zea mays) [1]; 500 g ai/ha
  Plant response rating, Corn: 50
[2]; 125 g ai/ha
  Pigweed plant response rating: 0
[2]; 500 g ai/ha
  Pigweed plant response rating: 0
Kochia (Kochia scoparia) [21]; 125 g ai/ha
  Kochia plant response rating: 0
Kochia (Kochia scoparia) [21]; 500 g ai/ha
  Kochia plant response rating: 20
[22]; 125 g ai/ha
  Ragweed plant response rating: 0
[22]; 500 g ai/ha
  Ragweed plant response rating: 20
[3]; 500 g ai/ha
  Plant response rating: 0
[23]; 125 g ai/ha
  Plant response rating, Blackgrass: 40
[23]; 500 g ai/ha
  Plant response rating, Blackgrass: 50
[4]; 500 g ai/ha
  Plant response rating: 60
[24]; 31 g ai/ha
  Plant response rating: 0
[24]; 62 g ai/ha
  Plant response rating: 0
[24]; 125 g ai/ha
  Plant response rating: 0
[24]; 250 g ai/ha
  Plant response rating: 0
Kochia (Kochia scoparia) [25]; 125 g ai/ha
  Plant response rating, Kochia: 0
Kochia (Kochia scoparia) [25]; 500 g ai/ha
  Plant response rating, Kochia: 20
[7]; 500 g ai/ha
  Plant response rating: 60
[8]; 125 g ai/ha
  Plant response rating, Pigweed: 0
[8]; 500 g ai/ha
  Plant response rating, Pigweed: 0
[9]; 125 g ai/ha
  Plant response rating, Wheat: 0
[9]; 500 g ai/ha
  Plant response rating, Wheat: 30
[26]; 125 g ai/ha
  Plant response rating, Galium: 20
[26]; 500 g ai/ha
  Plant response rating, Galium: 20
[27]; 125 g ai/ha
  Ryegrass, Italian plant response rating: 20
[27]; 500 g ai/ha
  Ryegrass, Italian plant response rating: 30
[15]; 125 g ai/ha
  Plant response rating, Foxtail, Giant: 70
[15]; 500 g ai/ha
  Plant response rating, Foxtail, Giant: 80
[16]; 125 g ai/ha
  Foxtail, Giant plant response rating: 80
[16]; 500 g ai/ha
  Foxtail, Giant plant response rating: 90
[28]; 31 g ai/ha
  Plant response rating: 0
[28]; 62 g ai/ha
  Plant response rating: 0
[28]; 125 g ai/ha
  Plant response rating: 0
[28]; 250 g ai/ha
  Plant response rating: 0
[29]; 125 g ai/ha
  Plant response rating, Ryegrass, Italian: 0
[29]; 500 g ai/ha
  Plant response rating, Ryegrass, Italian: 20
[17]; 125 g ai/ha
  Plant response rating, Barnyardgrass: 60
[17]; 500 g ai/ha
  Plant response rating, Barnyardgrass: 80
[30]; 125 g ai/ha
  Plant response rating, Ragweed: 0
[30]; 500 g ai/ha
  Plant response rating, Ragweed: 0
Rice (Oryza sativa) [18]; 500 g ai/ha
  Plant response rating: 0
[31]; 31 g ai/ha
  Plant response rating: 0
[31]; 62 g ai/ha
  Plant response rating: 0
[31]; 125 g ai/ha
  Plant response rating: 0
[31]; 250 g ai/ha
  Plant response rating: 0
[20]; 125 g ai/ha
  Barnyardgrass plant response rating: 70
[20]; 500 g ai/ha
  Barnyardgrass plant response rating: 80
Rice (Oryza sativa) [32]; 31 g ai/ha
  Plant response rating: 0
Rice (Oryza sativa) [32]; 62 g ai/ha
  Plant response rating: 0
Rice (Oryza sativa) [32]; 125 g ai/ha
  Plant response rating: 0
Rice (Oryza sativa) [32]; 250 g ai/ha
  Plant response rating: 0
